Laboratory results reported in US20070111265A1, “Ligands for mineralocorticoid receptor (MR) and methods for screening for or designing MR ligands” (Van Andel Research Institute, priority 2005, published 2007).
Where a chain is given by its changes, count along the chain named. “Also recorded” adds a separate entry of the source.

Columns and labels:
Assay in all cases: MMTV luciferase reporter assay in Cos-7 cells
Assay type in all cases: cell-based
[1] = molecular target: T1, MR L848Q/S843P (Homo sapiens, UniProt P08235, L848Q/S843P); details: double mutation
T1 construct: (S843P and L848Q) within the context of the full length wild type receptor; expressed in transfected cells; host or cells: Cos-7
T1 sequence (P08235 1-984 S843P/L848Q): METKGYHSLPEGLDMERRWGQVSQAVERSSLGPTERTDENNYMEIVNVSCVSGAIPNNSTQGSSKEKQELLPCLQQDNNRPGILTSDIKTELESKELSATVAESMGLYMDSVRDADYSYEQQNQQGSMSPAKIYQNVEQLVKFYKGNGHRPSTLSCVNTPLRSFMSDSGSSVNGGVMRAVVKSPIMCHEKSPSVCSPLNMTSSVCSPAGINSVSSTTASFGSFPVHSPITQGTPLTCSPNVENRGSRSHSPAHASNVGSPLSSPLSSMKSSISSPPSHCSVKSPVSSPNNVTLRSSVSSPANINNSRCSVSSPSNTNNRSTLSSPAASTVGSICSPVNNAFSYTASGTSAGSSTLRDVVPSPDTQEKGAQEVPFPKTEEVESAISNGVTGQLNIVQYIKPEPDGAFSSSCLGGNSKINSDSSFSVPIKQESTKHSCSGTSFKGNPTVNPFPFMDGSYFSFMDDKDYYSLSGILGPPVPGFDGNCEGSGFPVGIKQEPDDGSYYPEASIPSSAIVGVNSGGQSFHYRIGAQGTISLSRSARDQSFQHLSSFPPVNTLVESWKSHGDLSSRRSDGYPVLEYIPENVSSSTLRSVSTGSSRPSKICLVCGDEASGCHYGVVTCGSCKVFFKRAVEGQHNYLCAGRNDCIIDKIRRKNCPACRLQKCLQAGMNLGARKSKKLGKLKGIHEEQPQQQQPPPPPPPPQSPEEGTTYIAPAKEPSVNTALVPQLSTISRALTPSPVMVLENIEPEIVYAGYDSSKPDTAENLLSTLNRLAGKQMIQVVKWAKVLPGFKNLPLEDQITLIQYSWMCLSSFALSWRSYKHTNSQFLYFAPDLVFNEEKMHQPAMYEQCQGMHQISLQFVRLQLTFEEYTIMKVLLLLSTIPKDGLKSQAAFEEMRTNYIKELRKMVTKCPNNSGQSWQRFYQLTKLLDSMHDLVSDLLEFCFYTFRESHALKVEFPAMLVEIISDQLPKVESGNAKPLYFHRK
Protocol: (§1) Cos-7 cells were maintained in DMEM containing 10% fetal bovine serum (FBS) and were transiently transfected using Lipofectamine 2000 (Invitrogen). […] Cells were transfected in Opti-MEM with 400 ng of MMTV-Luc reporter plasmid and 400 ng of receptor expression vector (pRS vector) encoding full-length GR and MR respectively (ATCC). […] Luciferase data were normalized to Renilla activity as an internal control.
(§2) To validate the role of the key MR pocket residues in hormone recognition, the inventors mutated S843 and L848 to the corresponding GR residues (S843P and L848Q) within the context of the full length wild type receptor. […] We also performed reverse mutations in the full length GR receptor (P637S and Q642L) and tested them in the same MMTV reporter.

[2] = molecular target: T2, GR Q642L/P637S (Homo sapiens, UniProt P04150, P637S/Q642L); details: additional mutation of P637S
T2 construct: reverse mutations in the full length GR receptor (P637S and Q642L); expressed in transfected cells; host or cells: Cos-7
T2 sequence (P04150 1-777 P637S/Q642L): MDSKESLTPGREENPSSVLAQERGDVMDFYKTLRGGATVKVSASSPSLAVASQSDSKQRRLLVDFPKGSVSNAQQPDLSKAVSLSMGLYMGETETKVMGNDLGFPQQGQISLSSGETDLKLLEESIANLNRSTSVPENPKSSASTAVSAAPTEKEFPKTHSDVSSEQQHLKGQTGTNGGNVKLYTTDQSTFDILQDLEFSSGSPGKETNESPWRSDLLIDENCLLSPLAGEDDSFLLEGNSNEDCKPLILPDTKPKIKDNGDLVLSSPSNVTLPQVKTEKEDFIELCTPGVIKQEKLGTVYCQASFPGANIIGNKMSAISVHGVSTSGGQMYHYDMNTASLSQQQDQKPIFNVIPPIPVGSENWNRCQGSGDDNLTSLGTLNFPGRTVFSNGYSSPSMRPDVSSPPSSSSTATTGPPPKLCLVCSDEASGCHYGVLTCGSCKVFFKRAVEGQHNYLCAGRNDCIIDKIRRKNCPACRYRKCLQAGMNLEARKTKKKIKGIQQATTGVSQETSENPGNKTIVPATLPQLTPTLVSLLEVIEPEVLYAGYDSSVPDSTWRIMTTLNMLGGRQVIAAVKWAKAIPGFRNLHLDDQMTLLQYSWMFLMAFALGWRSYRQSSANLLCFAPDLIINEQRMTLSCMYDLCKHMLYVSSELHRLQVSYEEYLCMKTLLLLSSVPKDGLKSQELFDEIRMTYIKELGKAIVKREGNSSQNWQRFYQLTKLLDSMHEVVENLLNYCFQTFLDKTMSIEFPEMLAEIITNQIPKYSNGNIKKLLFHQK
Protocol: as §1, §2

[3] = molecular target: T3, GR Q642L (Homo sapiens, UniProt P04150, Q642L); details: Cos-7, MMTV-Luc
T3 construct: reverse mutations in the full length GR receptor (P637S and Q642L); expressed in transfected cells; host or cells: Cos-7
T3 sequence (P04150 1-777 Q642L): T2 sequence (P04150 1-777 P637S/Q642L) with S637P
Protocol: as §1, §2

Row | Structure (SMILES) | activation of MR L848Q/S843P [1] | activation of GR Q642L/P637S [2] | activation of GR Q642L [3]
1 | C[C@]12C[C@H](O)[C@H]3[C@@H](CCC4=CC(=O)CC[C@@]43C)[C@@H]1CC[C@@H]2C(=O)CO [corticosterone] | totally abolished; also recorded: severely affects activation | severely affects activation | remained intact
2 | C[C@]12CCC(=O)C=C1CC[C@@H]1[C@@H]2[C@@H](O)C[C@@]2(C)[C@H]1CC[C@]2(O)C(=O)CO [cortisol] | totally abolished; also recorded: severely affects activation | severely affects activation | completely abolished activation; also recorded: inability of cortisol to activate
